Measured values from patent US11040981B2, “Pyrrolotriazine compounds and methods of inhibiting TAM kinases” (Syros Pharmaceuticals, Inc., priority 2017, dated 2021).

How the values were obtained:
TYRO3 = biological target: T1, TYRO3 (Homo sapiens, UniProt Q06418); assay: TR-FRET kinase activity assay, TYRO3; type: biochemical; settings: ATP at Km, 60 minutes
T1 sequence (Q06418 41-890): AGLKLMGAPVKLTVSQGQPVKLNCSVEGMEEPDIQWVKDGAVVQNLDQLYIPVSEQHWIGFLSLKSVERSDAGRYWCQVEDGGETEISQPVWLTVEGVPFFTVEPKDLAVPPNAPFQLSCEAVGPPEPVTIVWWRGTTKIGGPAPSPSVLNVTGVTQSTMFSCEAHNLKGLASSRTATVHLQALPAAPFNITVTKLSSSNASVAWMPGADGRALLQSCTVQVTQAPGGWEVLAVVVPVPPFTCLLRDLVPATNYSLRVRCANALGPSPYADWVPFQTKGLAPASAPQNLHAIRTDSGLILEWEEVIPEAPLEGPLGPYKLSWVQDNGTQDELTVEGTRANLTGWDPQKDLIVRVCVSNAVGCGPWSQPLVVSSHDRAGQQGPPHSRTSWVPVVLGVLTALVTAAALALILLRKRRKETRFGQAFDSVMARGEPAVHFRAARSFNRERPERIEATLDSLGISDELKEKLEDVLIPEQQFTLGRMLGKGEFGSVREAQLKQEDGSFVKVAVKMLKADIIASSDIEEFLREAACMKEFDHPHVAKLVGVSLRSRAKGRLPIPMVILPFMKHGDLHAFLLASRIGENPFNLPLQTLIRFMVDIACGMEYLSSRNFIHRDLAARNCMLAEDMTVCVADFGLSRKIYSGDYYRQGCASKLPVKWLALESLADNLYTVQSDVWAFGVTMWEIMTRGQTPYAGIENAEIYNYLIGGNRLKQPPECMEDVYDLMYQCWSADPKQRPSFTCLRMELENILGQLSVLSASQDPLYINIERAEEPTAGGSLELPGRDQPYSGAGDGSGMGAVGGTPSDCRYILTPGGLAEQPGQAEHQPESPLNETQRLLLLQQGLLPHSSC
How it was run: (§1)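 Recombinant human kinases, fluorescent peptide substrate, ATP at Km; 1 h RT, pH 7.5. EDTA-quenched, Eu antibody added, TR-FRET read; IC50 determined.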

AXL = biological target: T2, AXL (Homo sapiens, UniProt P30530); assay: TR-FRET kinase activity assay, AXL; type: biochemical; settings: ATP at Km, 60 minutes
T2 sequence (P30530 26-894): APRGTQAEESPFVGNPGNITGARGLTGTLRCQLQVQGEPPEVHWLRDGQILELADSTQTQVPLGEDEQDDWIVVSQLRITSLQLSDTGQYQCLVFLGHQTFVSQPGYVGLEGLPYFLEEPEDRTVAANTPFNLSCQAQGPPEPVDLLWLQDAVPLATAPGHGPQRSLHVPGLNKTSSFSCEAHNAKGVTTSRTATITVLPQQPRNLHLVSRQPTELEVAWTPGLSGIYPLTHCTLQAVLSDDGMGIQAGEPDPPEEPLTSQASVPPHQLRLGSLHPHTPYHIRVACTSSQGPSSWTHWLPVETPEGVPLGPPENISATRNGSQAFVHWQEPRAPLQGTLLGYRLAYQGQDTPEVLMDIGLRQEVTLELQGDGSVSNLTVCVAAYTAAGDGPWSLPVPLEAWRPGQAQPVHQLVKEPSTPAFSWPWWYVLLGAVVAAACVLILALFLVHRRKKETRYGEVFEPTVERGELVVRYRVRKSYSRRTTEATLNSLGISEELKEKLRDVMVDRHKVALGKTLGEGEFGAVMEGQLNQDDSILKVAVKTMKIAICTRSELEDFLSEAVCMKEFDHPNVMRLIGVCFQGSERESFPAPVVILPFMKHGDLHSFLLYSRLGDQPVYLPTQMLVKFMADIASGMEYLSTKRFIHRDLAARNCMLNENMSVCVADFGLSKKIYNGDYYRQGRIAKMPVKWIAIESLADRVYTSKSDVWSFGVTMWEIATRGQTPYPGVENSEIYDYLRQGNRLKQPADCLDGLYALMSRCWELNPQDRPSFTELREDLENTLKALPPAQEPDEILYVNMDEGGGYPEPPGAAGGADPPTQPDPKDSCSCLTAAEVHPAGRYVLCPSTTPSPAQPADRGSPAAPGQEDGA
How it was run: as §1

SMILES	IC50 (TYRO3) [nM]	IC50 (AXL) [nM]
COCC(C)Nc1ncc2c(-c3cnn(C4COC4)c3)cc(C3CCNC(=O)C3)n2n1 (mixture of isomers) [Compound 592]	≤ 100	1000 to 10000
CC(COc1ccccc1)Nc1ncc2c(-c3cnn(C4COC4)c3)cc([C@H]3CC[C@H](O)CC3)n2n1 (mixture of isomers) [Compound 528]	≤ 100	≤ 100
CC(Cc1ccc(F)cc1)Nc1ncc2c(-c3cnn(C4COC4)c3)cc(C3CCC(O)CC3)n2n1 (racemic) [Compound 535]	≤ 100	≤ 100
CC(Nc1ncc2c(-c3cnn(C4COC4)c3)cc(C3CCC(O)CC3)n2n1)c1cccnc1 (racemic) [Compound 536]	≤ 100	100 to 1000
CC[C@H](C)Nc1ncc2c(C3CCNCC3)cc([C@H]3CC[C@H](O)CC3)n2n1 [Compound 135, (trans)-4-(2-((S)-sec-butylamino)-5-(piperidin-4-yl)pyrrolo[2,1-f][1,2,4]triazin-7-yl)cyclohexanol]	≤ 100	≤ 100
CC[C@H](C)Nc1ncc2c(C3CCN(c4nccc(C)n4)CC3)cc([C@H]3CC[C@H](O)CC3)n2n1 [Compound 136, (trans)-4-(2-((S)-sec-butylamino)-5-(1-(4-methylpyrimidin-2-yl)piperidin-4-yl)pyrrolo[2,1-f][1,2,4]triazin-7-yl)cyclohexanol]	100 to 1000	100 to 1000
CCCCC[C@H](C)Nc1ncc2c([C@H]3CC[C@@H](C(=O)N4CCS(=O)(=O)CC4)CC3)cc([C@H]3CC[C@H](O)CC3)n2n1 [Compound 137]	≤ 100	≤ 100
CCOCC(C)Nc1ncc2c(-c3ccc(CN4CCN(C)CC4)cc3)cc(C3CCC(O)CC3)n2n1 (centres unmarked) [Compound 138]	≤ 100	100 to 1000
COC[C@H](C)Nc1ncc2c(-c3ccc(C(=O)O)cc3)cc([C@H]3CC[C@H](O)CC3)n2n1 [Compound 139]	≤ 100	≤ 100
COC[C@H](C)Nc1ncc2c(-c3ccc(CN4CCOCC4)cc3)cc([C@H]3CC[C@H](O)CC3)n2n1 [Compound 140]	≤ 100	≤ 100
COC[C@H](C)Nc1ncc2c(C3=CCOCC3)cc([C@H]3CC[C@H](O)CC3)n2n1 [Compound 141]	≤ 100	≤ 100
COCC(C)Nc1ncc2c(-c3ccc(CN4CCCC4)cc3)cc(C3CCC(O)CC3)n2n1 (centres unmarked) [Compound 142]	≤ 100	≤ 100
COCC(C)Nc1ncc2c(-c3ccc(C(C)N4CCOCC4)cc3)cc(C3CCC(O)CC3)n2n1 (centres unmarked) [Compound 143]	≤ 100	≤ 100
C[C@H](Nc1ncc2c(-c3cnn(C4COC4)c3)cc([C@H]3CC[C@H](O)CC3)n2n1)C(F)(F)F [Compound 510]	≤ 100	100 to 1000
COC[C@H](C)Nc1ncc2c(-c3cnn(C4COC4)c3)cc(-c3cccc(O)c3)n2n1 [Compound 511]	≤ 100	1000 to 10000
COC[C@H](C)Nc1ncc2c(-c3ccnc(N4CCN(CC5COC5)CC4)c3)cc([C@H]3CC[C@H](O)CC3)n2n1 [Compound 512]	≤ 100	≤ 100
C[C@@H](COC(F)F)Nc1ncc2c(-c3ccc(S(C)(=O)=O)nc3)cc([C@H]3CC[C@H](O)CC3)n2n1 [Compound 513]	≤ 100	≤ 100
CCN(C(=O)N1CCN(c2cc(-c3cc([C@H]4CC[C@H](O)CC4)n4nc(N[C@@H](C)COC)ncc34)ccn2)CC1)C(C)C [Compound 514]	≤ 100	≤ 100
COC[C@H](C)Nc1ncc2c(-c3cnn(C4COC4)c3)cc(C3CCC(F)(F)CC3)n2n1 [Compound 515]	≤ 100	100 to 1000
COC[C@H](C)Nc1ncc2c(-c3cnn(C(C)(C)C(=O)N4CCCC5(COC5)C4)c3)cc([C@H]3CC[C@H](O)CC3)n2n1 [Compound 516]	≤ 100	≤ 100

SMILES	IC50 (TYRO3) [nM]	IC50 (AXL) [nM]
Cc1nnc(C(C)(C)n2cc(-c3cc([C@H]4CC[C@H](O)CC4)n4nc(N[C@@H](C)COC(F)F)ncc34)cn2)o1 [Compound 517]	≤ 100	≤ 100
COC[C@H](C)Nc1ncc2c(-c3ccnc(N4CCc5cnn(C)c5C4)c3)cc([C@H]3CC[C@H](O)CC3)n2n1 [Compound 518]	≤ 100	≤ 100
COC[C@H](C)Nc1ncc2c(-c3cnn(C4COC4)c3)cc(C3CCSCC3)n2n1 [Compound 522]	≤ 100	100 to 1000
COC[C@H](C)Nc1ncc2c(-c3cnn(C4COC4)c3)cc(C3CCC(=O)NC3)n2n1 (some centres unmarked) [Compound 526]	≤ 100	1000 to 10000
C[C@@H](Nc1ncc2c(-c3cnn(C4COC4)c3)cc([C@H]3CC[C@H](O)CC3)n2n1)C(F)(F)F [Compound 527]	≤ 100	100 to 1000
COC[C@H](C)Nc1ncc2c(-c3ccc([S@](C)(=N)=O)nc3)cc([C@H]3CC[C@H](O)CC3)n2n1 [Compound 532]	≤ 100	≤ 100
COC[C@H](C)Nc1ncc2c(-c3ccc([S@@](C)(=N)=O)nc3)cc([C@H]3CC[C@H](O)CC3)n2n1 [Compound 533]	≤ 100	≤ 100
COC[C@H](C)Nc1ncc2c(-c3ccnc(N4CCOC(C(C)(C)O)C4)c3)cc([C@H]3CC[C@H](O)CC3)n2n1 (some centres unmarked) [Compound 534]	≤ 100	≤ 100
C[C@H](Nc1ncc2c(-c3cnn(C(C)(C)C(=O)N4CCOCC4)c3)cc([C@H]3CC[C@H](O)CC3)n2n1)C(F)(F)F [Compound 537]	≤ 100	≤ 100
COCC(C)Nc1ncc2c(-c3ccc4cc[nH]c4c3)cc(C3CCC(O)CC3)n2n1 (centres unmarked) [Compound 538]	≤ 100	100 to 1000
COCC(C)Nc1ncc2c(-c3ccc4[nH]ccc4c3)cc(C3CCC(O)CC3)n2n1 (centres unmarked) [Compound 539]	≤ 100	100 to 1000
C[C@@H](CC(F)(F)F)Nc1ncc2c(-c3ccc([S@](C)(=N)=O)nc3)cc([C@H]3CC[C@H](O)CC3)n2n1 [Compound 540]	≤ 100	≤ 100
C[C@@H](CC(F)(F)F)Nc1ncc2c(-c3ccc([S@@](C)(=N)=O)nc3)cc([C@H]3CC[C@H](O)CC3)n2n1 [Compound 541]	≤ 100	≤ 100
CC(Nc1ncc2c(-c3cnn(C4COC4)c3)cc(C3CCC(O)CC3)n2n1)c1ccccn1 (centres unmarked) [Compound 544]	≤ 100	1000 to 10000
COC[C@H](C)Nc1ncc2c(-c3ccnc(N4CCOCC4)c3)cc([C@H]3CC[C@@H](O)CC3)n2n1 [Compound 546]	≤ 100	≤ 100
COC[C@H](C)Nc1ncc2c(-c3cnn(C(C)(C)C(=O)N4CCOCC4)c3)cc([C@H]3CC[C@@H](O)CC3)n2n1 [Compound 547]	≤ 100	≤ 100
COC[C@H](C)Nc1ncc2c(-c3ccnc(N4CCOCC4)c3)cc([C@H]3CC[C@@](C)(O)CC3)n2n1 [Compound 548]	≤ 100	≤ 100
COC[C@H](C)Nc1ncc2c(-c3ccnc(N4CCOCC4)c3)cc([C@H]3CC[C@](C)(O)CC3)n2n1 [Compound 549]	≤ 100	≤ 100
COCC(C)Nc1ncc2c(-c3ccc4ocnc4c3)cc(C3CCC(O)CC3)n2n1 (centres unmarked) [Compound 550]	≤ 100	≤ 100
COCC(C)Nc1ncc2c(-c3cccc(-c4nnc(C)o4)c3)cc(C3CCC(O)CC3)n2n1 (centres unmarked) [Compound 551]	≤ 100	≤ 100
